This is an account of results in US20100022542A1, “COMPOUNDS EXHIBITING THROMBOPOIETIN RECEPTOR AGONISM” (Shionogi & Co., Ltd., priority 2000, published 2010).

The target of this assay is T1, human TPO receptor (hTPOR) (Homo sapiens, UniProt P40238).
T1 construct: expressed in transfected cells; host or cells: BaF-B03 (murine IL-3 dependent cell line)
T1 sequence (P40238 26-635): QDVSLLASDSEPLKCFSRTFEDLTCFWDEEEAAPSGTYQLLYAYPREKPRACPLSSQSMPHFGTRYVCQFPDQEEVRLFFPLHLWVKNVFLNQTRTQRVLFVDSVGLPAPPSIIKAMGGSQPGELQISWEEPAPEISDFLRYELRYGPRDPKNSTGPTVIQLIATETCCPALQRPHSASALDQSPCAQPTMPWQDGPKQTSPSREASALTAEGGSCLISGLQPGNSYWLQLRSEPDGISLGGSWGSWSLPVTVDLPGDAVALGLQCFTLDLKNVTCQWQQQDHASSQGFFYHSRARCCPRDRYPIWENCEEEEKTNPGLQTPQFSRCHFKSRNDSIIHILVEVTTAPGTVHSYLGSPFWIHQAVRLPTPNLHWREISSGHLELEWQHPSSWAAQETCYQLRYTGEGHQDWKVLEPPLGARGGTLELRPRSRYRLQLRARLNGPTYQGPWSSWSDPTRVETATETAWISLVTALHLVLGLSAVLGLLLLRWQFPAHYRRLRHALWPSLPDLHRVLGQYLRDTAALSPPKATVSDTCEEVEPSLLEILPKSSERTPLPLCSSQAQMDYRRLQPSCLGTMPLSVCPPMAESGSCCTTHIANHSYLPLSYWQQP
The assay is described as follows: Proliferation of TPO dependent BaF/hTPOR cells, WST-1, thrombopoietic activity ED50 (Test Example 3). Type of assay: cell-based. Particulars: 20 h incubation then WST-1 4 h, absorbance at 450 nm. The text has this:
FIG. 2: The chart represents proliferation of the human TPO dependent cells bearing human TPO receptors by the present invention compound, wherein the x-axis is concentration of the present invention compound, and the y-axis is the absorbance as an indicator of cell proliferation. Open circles indicate a response of human TPO, and closed circles indicate a response of the compound (B-1).
The TPO dependent BaF/hTPOR cell line which was established by introducing human TPO receptor (hTPOR) into BaF-B03 cells according to Collins et al (J. Cell. Physiol., 137:293-298 (1988)) was used to test the thrombopoietic activity of the present compound. The DNA sequences and encoded peptide sequences for human hTPOR have been described by Vigon et al (Proc. Natl. Acad. Sci. USA, 89:5640-5644 (1992)). TPO dose not have any ability to support proliferation of interleukin-3 dependent parental cell line BaF-B03. BAF/hTPOR cells were maintained in RPMI medium and WEHI-3B conditioned medium as a source of murine interleukin-3 (IL-3). These cells were washed and resuspended in RPMI medium without a source of murine IL-3 and seeded into each well of 96-well microtiter plates at a density of 5×10^4 cells per well in the absence or presence of various concentration of hTPO or the present compound. After incubation at 37° C. for 20 hours in the 5% CO2 incubator, 10% WST-1 reagent (Takara Biomedicals, Japan) was added to each wells and the cells were further incubated for 4 hours. Effect of the present compound on the growth of BAF/mTPOR cell line which was established by introducing murine TPO receptor (mTPOR) into BAF-B03 cells is shown in FIG. 3. Table 8 exemplifies the ED50 for tested compounds of the present invention, wherein the ED50 is the half concentration of the concentration showing the maximum thrombopoietic activity.
(Tetrazolium dyes change colour on reduction, which living cells bring about.)
For `C/C(=C\c1ccc(C(=O)Nc2nc(-c3ccc(Cl)c(Cl)c3)cs2)cc1)C(=O)NCCC(=O)O` [Compound B-28], the midpoint of the response, the EC50, lay at 565 nM.

Take `C/C(=C\c1ccc(C(=O)Nc2nc(-c3ccc(Cl)c(Cl)c3)cs2)cc1)C(=O)NC(C)(C)C` [Compound B-39]: the 50% effective concentration (EC50) (as a rule, the midpoint of the concentration-response curve) was found to be 729 nM.

`O=C(O)/C(Cl)=C/c1ccc(C(=O)Nc2nc(-c3cccc(F)c3)cs2)cc1` [Compound A-30] gave a half-maximal effective concentration (EC50) of 274 nM.

Compound `O=C(O)/C(Cl)=C/c1ccc(C(=O)Nc2nc(-c3ccc4c(c3)CCC4)cs2)cc1` [Compound A-73] gave an EC50 of 75 nM.

Turning to `O=C(O)/C(Cl)=C/c1ccc(C(=O)Nc2nc(-c3cc(F)ccc3F)cs2)cc1` [Compound A-58], a half-maximal response (EC50) required 497 nM. Compared with the last compound, the EC50 is about 6.6-fold higher.

`O=C(O)/C(Cl)=C/c1ccc(C(=O)Nc2nc(-c3cccc(Br)c3F)cs2)cc1` [Compound A-81] had an EC50 of 71 nM.

Take `C/C(=C\c1ccc(C(=O)Nc2nc(-c3ccc(Cl)c(Cl)c3)cs2)cc1)C(=O)Nc1ccccc1` [Compound B-30]: the response was half-maximal at 177 nM (EC50).

On to `COC(=O)CCc1ccc(C(=O)Nc2nc(-c3ccc(Cl)c(Cl)c3)cs2)cc1` [Compound G-1], for which a half-maximal effect (EC50) was put at 261 nM.

Take `CCNC(=O)/C(=C/c1ccc(C(=O)Nc2nc(-c3ccc(Cl)c(Cl)c3)cs2)cc1)CC` [Compound B-19]: the concentration for a half-maximal effect (EC50) is 150 nM. Compared with the last compound, the EC50 is about 1.7-fold lower.

The compound `Cc1sc(NC(=O)c2ccc(/C=C(\Cl)C(=O)O)cc2)nc1-c1cccc(Br)c1` [Compound J-13] yielded an EC50 of 116 nM.

`CCOC(=O)/C(Cl)=C/c1ccc(C(=O)Nc2nc(-c3ccc(C(F)(F)F)cc3)cs2)cc1` [Compound A-39] showed a concentration for a half-maximal effect (EC50) of 44 nM.

In turn, `O=C(O)/C(Cl)=C/c1ccc(C(=O)Nc2nc(-c3cccc(-c4ccccc4)c3)cs2)cc1` [Compound A-54] showed an EC50 of 65 nM. The EC50 values of the last two compounds are within 1.5-fold of each other.

For the compound `CCCCCc1cccc(-c2csc(NC(=O)c3ccc(/C=C(\Cl)C(=O)O)cc3)n2)c1F` [Compound A-84], the EC50 was 23 nM.

Compound `O=C(O)/C(Cl)=C/c1ccc(C(=O)Nc2nc(-c3ccc(F)c(Br)c3)cs2)cc1` [Compound A-63] yielded an EC50 of 25 nM.

For `O=C(O)/C(Cl)=C/c1ccc(C(=O)Nc2nc(-c3ccc(-c4ccccc4)cc3)cs2)cc1` [Compound A-47], the midpoint of the response, the EC50, lay at 512 nM.

As to `O=C(O)C(Br)=Cc1ccc(C(=O)Nc2nc(-c3ccc(Cl)c(Cl)c3)cs2)cc1` [Compound C-4], the concentration giving a half-maximal response (EC50) was determined as 922 nM.

As for `CCOC(=O)/C(Cl)=C/c1ccc(C(=O)Nc2nc(-c3cccc(F)c3)cs2)cc1` [Compound A-29], a half-maximal effect (EC50) was put at 289 nM.

For the compound `O=C(O)/C(Cl)=C/c1ccc(C(=O)Nc2nc(-c3ccc(F)cc3)cs2)cc1` [Compound A-38], the midpoint of the response, the EC50, lay at 245 nM.

`O=C(O)/C(Cl)=C/c1ccc(C(=O)Nc2nc(-c3ccc(Br)cc3F)cs2)cc1` [Compound A-69]: the half-maximal effective concentration (EC50) was 71 nM.

`C/C(=C\c1ccc(C(=O)Nc2nc(-c3ccc(F)c(F)c3)cs2)cc1)C(N)=O` [Compound B-25] gave an EC50 of 367 nM.

In turn, `O=C(O)/C(Cl)=C/c1ccc(C(=O)Nc2nc(-c3ccc(F)c(Br)c3F)cs2)cc1` [Compound A-86] came in with an EC50 of 243 nM. Against the preceding compound, the EC50 is about 1.5-fold lower.

For `COc1cccc(-c2csc(NC(=O)c3ccc(/C=C(\Cl)C(=O)O)cc3)n2)c1` [Compound A-52], the EC50 worked out at 425 nM.

Take `O=C(O)/C(Cl)=C/c1ccc(C(=O)Nc2nc(-c3ccc(C(F)(F)F)cc3F)cs2)cc1` [Compound A-60]: the response was half-maximal at 23 nM (EC50).

In the case of `O=C(O)/C(Cl)=C/c1ccc(C(=O)Nc2nc(-c3cccc(C(F)(F)F)c3)cs2)cc1` [Compound A-42], the EC50 turned out to be 50 nM.

With `O=C(O)/C(Cl)=C/c1ccc(C(=O)Nc2nc(-c3ccccc3F)cs2)cc1` [Compound A-50], a half-maximal response (EC50) required 113 nM.

In the case of `CCC(=Cc1ccc(C(=O)Nc2nc(-c3ccc(Cl)c(Cl)c3)cs2)cc1)C(=O)O` [Compound A-6], a half-maximal effect (EC50) was put at 248 nM. Compared with the last compound, the EC50 is about 2.2-fold higher.

Compound `C/C(=C\c1ccc(C(=O)Nc2nc(-c3ccc(Cl)c(Cl)c3)cs2)cc1)C(=O)NCC(F)(F)F` [Compound B-31] gave a half-maximal effective concentration (EC50) of 178 nM.

`O=C(O)C(F)=Cc1ccc(C(=O)Nc2nc(-c3ccc(C(F)(F)F)cc3)cs2)cc1` [Compound A-46] yielded an EC50 of 263 nM.

The compound `CCCCOc1ccc(-c2csc(NC(=O)c3ccc(/C=C(\Cl)C(=O)O)cc3)n2)cc1` [Compound A-59] showed an EC50 of 164 nM.

With `O=C(O)/C(Cl)=C/c1ccc(C(=O)Nc2nc(-c3cccc(Cl)c3Cl)cs2)cc1` [Compound A-91], a half-maximal effect (EC50) was put at 76 nM. Against the preceding compound, the EC50 is about 2.2-fold lower.
